Test results taken from PubChem BioAssay (NCI).
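Test compounds were applied to cells in 96-well plates for 48 hours at 5 doses. TGI: concentration producing complete growth inhibition.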

Experiments:
Assay in all cases: NCI-60 cell line screen, 48 h
786-0 renal = test system: 786-0 renal
A498 renal = test system: A498 renal
A549 NSCLC = test system: A549 NSCLC
ACHN renal = test system: ACHN renal
BT-549 breast = test system: BT-549 breast
CAKI-1 renal = test system: CAKI-1 renal
CCRF-CEM leukemia = test system: CCRF-CEM leukemia
COLO 205 colon = test system: COLO 205 colon
DU-145 prostate = test system: DU-145 prostate
EKVX NSCLC = test system: EKVX NSCLC
HCC-2998 colon = test system: HCC-2998 colon
HCT-116 colon = test system: HCT-116 colon
HCT-15 colon = test system: HCT-15 colon
HL-60(TB) leukemia = test system: HL-60(TB) leukemia
HOP-62 NSCLC = test system: HOP-62 NSCLC
HOP-92 NSCLC = test system: HOP-92 NSCLC
HS 578T breast = test system: HS 578T breast
HT29 colon = test system: HT29 colon
IGROV1 ovarian = test system: IGROV1 ovarian
K-562 leukemia = test system: K-562 leukemia
KM12 colon = test system: KM12 colon
LOX IMVI melanoma = test system: LOX IMVI melanoma
M14 melanoma = test system: M14 melanoma
MALME-3M melanoma = test system: MALME-3M melanoma
MCF7 breast = test system: MCF7 breast
MDA-MB-231 breast = test system: MDA-MB-231 breast
MDA-MB-435 = test system: MDA-MB-435
MDA-N = test system: MDA-N
MOLT-4 leukemia = test system: MOLT-4 leukemia
NCI-H226 lung = test system: NCI-H226 lung
NCI-H23 lung = test system: NCI-H23 lung
NCI-H460 lung = test system: NCI-H460 lung
NCI-H522 lung = test system: NCI-H522 lung
NCI/ADR-RES ovarian = test system: NCI/ADR-RES ovarian
OVCAR-3 ovarian = test system: OVCAR-3 ovarian
OVCAR-4 ovarian = test system: OVCAR-4 ovarian
OVCAR-5 ovarian = test system: OVCAR-5 ovarian
OVCAR-8 ovarian = test system: OVCAR-8 ovarian
PC-3 prostate = test system: PC-3 prostate
RPMI-8226 leukemia = test system: RPMI-8226 leukemia
RXF 393 renal = test system: RXF 393 renal
SF-268 CNS = test system: SF-268 CNS
SF-295 CNS = test system: SF-295 CNS
SF-539 CNS = test system: SF-539 CNS
SK-MEL-2 melanoma = test system: SK-MEL-2 melanoma
SK-MEL-28 melanoma = test system: SK-MEL-28 melanoma
SK-MEL-5 melanoma = test system: SK-MEL-5 melanoma
SK-OV-3 ovarian = test system: SK-OV-3 ovarian
SN12C renal = test system: SN12C renal
SNB-19 CNS = test system: SNB-19 CNS
SNB-75 CNS = test system: SNB-75 CNS
SR leukemia = test system: SR leukemia
SW-620 colon = test system: SW-620 colon
T-47D breast = test system: T-47D breast
TK-10 renal = test system: TK-10 renal
U251 CNS = test system: U251 CNS
UACC-257 melanoma = test system: UACC-257 melanoma
UACC-62 melanoma = test system: UACC-62 melanoma
UO-31 renal = test system: UO-31 renal

## COc1ccc(C2/C(=C(\O)c3ccccc3)C(=O)C(O)(CC(=O)c3ccccc3)N2c2ccc(OC)cc2)cc1 (stereo not drawn)
786-0 renal
  TGI: 46.7 µM
A498 renal
  TGI: > 100 µM
A549 NSCLC
  TGI: > 100 µM
ACHN renal
  TGI: 68.8 µM
BT-549 breast
  TGI: > 56.8 µM
CAKI-1 renal
  TGI: > 75.8 µM
CCRF-CEM leukemia
  TGI: 14.5 µM
COLO 205 colon
  TGI: 38.8 µM
DU-145 prostate
  TGI: > 100 µM
EKVX NSCLC
  TGI: > 100 µM
HCC-2998 colon
  TGI: > 47.7 µM
HCT-116 colon
  TGI: 39.8 µM
HCT-15 colon
  TGI: 37.2 µM
HL-60(TB) leukemia
  TGI: 28.7 µM
HOP-62 NSCLC
  TGI: > 100 µM
HOP-92 NSCLC
  TGI: 32.5 µM
HS 578T breast
  TGI: > 100 µM
HT29 colon
  TGI: > 100 µM
IGROV1 ovarian
  TGI: > 77.7 µM
K-562 leukemia
  TGI: 58.8 µM
KM12 colon
  TGI: 36.9 µM
LOX IMVI melanoma
  TGI: 39.2 µM
M14 melanoma
  TGI: 99.6 µM
MALME-3M melanoma
  TGI: 75.7 µM
MCF7 breast
  TGI: > 88.5 µM
MDA-MB-231 breast
  TGI: 50.9 µM
MDA-MB-435
  TGI: 47.7 µM
MDA-N
  TGI: 82.5 µM
MOLT-4 leukemia
  TGI: 54 µM
NCI-H226 lung
  TGI: 66.3 µM
NCI-H23 lung
  TGI: > 100 µM
NCI-H460 lung
  TGI: > 84.8 µM
NCI-H522 lung
  TGI: 20.5 µM
NCI/ADR-RES ovarian
  TGI: 54.7 µM
OVCAR-3 ovarian
  TGI: 26.2 µM
OVCAR-4 ovarian
  TGI: > 100 µM
OVCAR-5 ovarian
  TGI: > 100 µM
OVCAR-8 ovarian
  TGI: > 100 µM
PC-3 prostate
  TGI: > 81.6 µM
RPMI-8226 leukemia
  TGI: 14.8 µM
RXF 393 renal
  TGI: > 85.1 µM
SF-268 CNS
  TGI: > 100 µM
SF-295 CNS
  TGI: > 100 µM
SF-539 CNS
  TGI: 59.3 µM
SK-MEL-2 melanoma
  TGI: 41.4 µM
SK-MEL-28 melanoma
  TGI: > 86.4 µM
SK-MEL-5 melanoma
  TGI: 29.2 µM
SK-OV-3 ovarian
  TGI: 99.3 µM
SN12C renal
  TGI: 85.5 µM
SNB-19 CNS
  TGI: > 100 µM
SNB-75 CNS
  TGI: > 100 µM
SR leukemia
  TGI: 14.3 µM
SW-620 colon
  TGI: > 56.6 µM
T-47D breast
  TGI: 98 µM
TK-10 renal
  TGI: > 100 µM
U251 CNS
  TGI: > 64.3 µM
UACC-257 melanoma
  TGI: 31.9 µM
UACC-62 melanoma
  TGI: > 100 µM
UO-31 renal
  TGI: 32.6 µM

## CCCCC(=O)OC[n+]1cccc(-c2c(COC(=O)NC(C)C)c(COC(=O)NC(C)C)c3n2CCC3)c1
786-0 renal
  TGI: > 85 µM
A498 renal
  TGI: 49.2 µM
A549 NSCLC
  TGI: > 100 µM
ACHN renal
  TGI: 82.8 µM
BT-549 breast
  TGI: > 100 µM
CAKI-1 renal
  TGI: 56 µM
CCRF-CEM leukemia
  TGI: > 77.4 µM
COLO 205 colon
  TGI: > 100 µM
DU-145 prostate
  TGI: 71.6 µM
EKVX NSCLC
  TGI: > 100 µM
HCC-2998 colon
  TGI: > 100 µM
HCT-116 colon
  TGI: > 100 µM
HCT-15 colon
  TGI: > 100 µM
HL-60(TB) leukemia
  TGI: > 81.9 µM
HOP-62 NSCLC
  TGI: > 100 µM
HOP-92 NSCLC
  TGI: 77.2 µM
HS 578T breast
  TGI: > 100 µM
HT29 colon
  TGI: > 100 µM
IGROV1 ovarian
  TGI: > 100 µM
K-562 leukemia
  TGI: > 100 µM
KM12 colon
  TGI: > 100 µM
LOX IMVI melanoma
  TGI: > 65.9 µM
M14 melanoma
  TGI: > 100 µM
MALME-3M melanoma
  TGI: > 100 µM
MCF7 breast
  TGI: > 100 µM
MDA-MB-231 breast
  TGI: > 100 µM
MDA-MB-435
  TGI: > 100 µM
MDA-N
  TGI: > 100 µM
MOLT-4 leukemia
  TGI: > 100 µM
NCI-H226 lung
  TGI: > 100 µM
NCI-H23 lung
  TGI: 98.7 µM
NCI-H460 lung
  TGI: > 100 µM
NCI-H522 lung
  TGI: 49.4 µM
NCI/ADR-RES ovarian
  TGI: > 100 µM
OVCAR-3 ovarian
  TGI: > 100 µM
OVCAR-4 ovarian
  TGI: > 92.6 µM
OVCAR-5 ovarian
  TGI: > 100 µM
OVCAR-8 ovarian
  TGI: > 100 µM
PC-3 prostate
  TGI: > 100 µM
RPMI-8226 leukemia
  TGI: > 100 µM
RXF 393 renal
  TGI: 55.2 µM
SF-268 CNS
  TGI: > 81.5 µM
SF-295 CNS
  TGI: > 100 µM
SF-539 CNS
  TGI: > 76 µM
SK-MEL-2 melanoma
  TGI: 70.6 µM
SK-MEL-28 melanoma
  TGI: > 100 µM
SK-MEL-5 melanoma
  TGI: > 100 µM
SK-OV-3 ovarian
  TGI: > 100 µM
SN12C renal
  TGI: > 100 µM
SNB-19 CNS
  TGI: > 100 µM
SNB-75 CNS
  TGI: > 100 µM
SR leukemia
  TGI: 52.3 µM
SW-620 colon
  TGI: > 100 µM
T-47D breast
  TGI: > 100 µM
TK-10 renal
  TGI: > 100 µM
U251 CNS
  TGI: > 100 µM
UACC-257 melanoma
  TGI: > 100 µM
UACC-62 melanoma
  TGI: 60.7 µM
UO-31 renal
  TGI: 71.7 µM
